Source: US20230416330A1, “Optimized GIP Peptide Analogues” (Antag Therapeutics ApS, priority 2019, published 2023)
Starred links: 1 amine or outer side, 2 acyl side, 3 side chain; linkers in the order of their positions; H or OH if unused. Non-standard residues stand in square brackets, D forms with d. Residues, ends and D or L forms follow the SMILES beside them. Groups on a side chain read outwards from the residue. *: point of attachment. C18 diacid = O=C(O)CCCCCCCCCCCCCCCCC(=O)*; C16 diacid = O=C(O)CCCCCCCCCCCCCCC(=O)*; γGlu = O=C(O)[C@H](CCC(=O)[*:2])N[*:1]; Glutaryl = O=C(CCCC(=O)[*:2])[*:1]; Palmitoyl = CCCCCCCCCCCCCCCC(=O)*; Nle = CCCC[C@H](N)C(=O)O; AEEA = NCCOCCOCC(=O)O; Aib = CC(C)(N)C(=O)O

Legend:
[1] = Physical stability: fibril formation in Thioflavin T (ThT) assay with agitation; assay type: physicochemical
Procedure: Continuous measurement of the fluorescence emission at 486 nm can be used as a measure of fibrillation behavior of peptides and proteins. The time until onset of fibrillation or fibrillation lag time is estimated here by defining the lag time (Tlag) as the point in time where the signal relative to the pre-transition baseline has reached 10% of the post-transition baseline.
50 mM sodium phosphate buffer for dissolving some samples was prepared in ultrapure water (Milli-Q® Reference A+ System, Merck) with a resistivity of 18.2 MΩ·cm. The buffer was adjusted to pH 7.4 and filtered.
The ultrapure water (MilliQ) for dissolving some samples was adjusted to pH 7.4 with NaOH and filtered prior to sample preparation.
(§1) Peptides were either dissolved in sodium phosphate buffer (50 mM, pH 7.4, filtered) or dissolved in ultrapure (MilliQ) water (adjusted to pH 7.4 with NaOH, filtered) (see Table 3). All peptide samples were prepared to a concentration of 1, 5, 7.5 or 15 mg/ml. All samples, with the exception of reference peptides GIP(3-30), AT158, and AT482 dissolved readily and produced clear and colorless solutions with gentle mixing. Peptide samples were subsequently filtered through 0.22 μm nylon filters (Q-Max® RR syringe filter, 13 mm, Frisenette, DK) to produce particle-free solutions. All samples were added to a 96-well plate reader for the ThT assay at t=0.
For each sample, […] ThT (1 mM) was added to 1.2 mL peptide solution. From this sample mixture, an amount of 200 uL/well was pipetted into four or five wells (n=4 or 5). Blank samples (buffer+ThT) were also included. One 3 mm silica bead was added to each well containing samples and the plate was subjected to orbital rotation at 300 rpm to agitate and stress the samples. The temperature was kept at 25° C. throughout the measurement.

[2] = Solubility by visual inspection of peptide solutions; assay type: physicochemical
Procedure: as §1
Clear visual appearance may be taken as an indicator of the immediate solubility of the peptide. […] Thus, A13Aib and/or N24E substitutions appear to increase solubility.

[3] = 1 mg/ml, TFA, Phosphate (7.4), 25° C., agitation
[4] = 5 mg/ml, TFA, MilliQ, 25° C., agitation

| Compound | Avr lag time (h) [1, 3] | Avr lag time (h) ([1]; 7.5 mg/ml, Na, MilliQ (8), 25° C., agitation) | Avr lag time (h) ([1]; 15 mg/ml, Na, MilliQ (8), 25° C., agitation) | Visual appearance ([2]; 1 mg/ml, TFA, Phosphate (7.4)) | Visual appearance ([2]; 7.5 mg/ml, Na, MilliQ (8)) | Visual appearance ([2]; 15 mg/ml, Na, MilliQ (8)) | Avr lag time (h) [1, 4] | Visual appearance ([2]; 5 mg/ml, TFA, MilliQ) | Avr lag time (h) ([1]; 5 mg/ml, TFA, Phosphate, 25° C., agitation) | Fibril formation (FIG. 1) ([1]; in phosphate buffer, about 94 h, orbital rotation) | Visual appearance ([2]; 5 mg/ml, TFA, Phosphate) | Avr lag time [1, 3] [h] |
| --- | --- | --- | --- | --- | --- | --- | --- | --- | --- | --- | --- | --- |
| CCCC[C@H](NC(=O)C(C)(C)NC(=O)[C@@H](NC(=O)[C@H](CO)NC(=O)[C@H](Cc1ccc(O)cc1)NC(=O)[C@H](CCC(=O)O)NC(=O)[C@H](CO)NC(=O)[C@@H](NC(=O)[C@H](Cc1ccccc1)NC(=O)[C@@H](NC(=O)CNC(=O)CCCC(=O)O)[C@@H](C)O)[C@@H](C)CC)[C@@H](C)CC)C(=O)N[C@@H](CCC(=O)O)C(=O)N[C@@H](CCCCN)C(=O)N[C@H](C(=O)N[C@@H](CCCCNC(=O)COCCOCCNC(=O)COCCOCCNC(=O)CC[C@H](NC(=O)CCCCCCCCCCCCCCCCC(=O)O)C(=O)O)C(=O)N[C@@H](CCC(N)=O)C(=O)N[C@@H](CCC(N)=O)C(=O)N[C@@H](CCC(=O)O)C(=O)N[C@@H](Cc1ccccc1)C(=O)N[C@H](C(=O)N[C@@H](CCC(=O)O)C(=O)N[C@@H](Cc1c[nH]c2ccccc12)C(=O)N[C@@H](CC(C)C)C(=O)N[C@@H](CC(C)C)C(=O)N[C@@H](C)C(=O)N[C@@H](CCC(N)=O)C(=O)N[C@@H](CCCCN)C(=O)N1CCC[C@H]1C(=O)N[C@@H](CO)C(=O)N[C@@H](CO)C(=O)NCC(=O)N[C@@H](C)C(=O)N1CCC[C@H]1C(=O)N1CCC[C@H]1C(=O)N1CCC[C@H]1C(=O)N[C@@H](CO)C(=O)O)C(C)C)[C@@H](C)CC [AT706] (Glutaryl-GTFISEYSI[Aib][Nle]EKIK([AEEA-AEEA-γGlu-C18 diacid])QQEFVEWLLAQKPSSGAPPPS-OH) | fnd (Fnd = fibrils not detected within experiment time (96 hours) with agitation.) | fnd (Fnd = fibrils not detected within experiment time (96 hours) with agitation.) | fnd (Fnd = fibrils not detected within experiment time (96 hours) with agitation.) | Clear | Clear | Clear | – | – | – | – | – | – |
| CC[C@H](C)[C@H](NC(=O)[C@H](CCCCN)NC(=O)[C@H](CC(=O)O)NC(=O)[C@H](CCSC)NC(=O)C(C)(C)NC(=O)[C@@H](NC(=O)[C@H](CO)NC(=O)[C@H](Cc1ccc(O)cc1)NC(=O)[C@H](CC(=O)O)NC(=O)[C@H](CO)NC(=O)[C@@H](NC(=O)[C@H](Cc1ccccc1)NC(=O)[C@@H](NC(=O)CNC(=O)[C@@H](N)CCC(=O)O)[C@@H](C)O)[C@@H](C)CC)[C@@H](C)CC)C(=O)N[C@@H](CCCCNC(=O)CCCCCCCCCCCCCCC(=O)O)C(=O)N[C@@H](CCC(N)=O)C(=O)N[C@@H](CCC(N)=O)C(=O)N[C@@H](CC(=O)O)C(=O)N[C@@H](Cc1ccccc1)C(=O)N[C@H](C(=O)N[C@@H](CC(N)=O)C(=O)N[C@@H](Cc1c[nH]c2ccccc12)C(=O)N[C@@H](CC(C)C)C(=O)N[C@@H](CC(C)C)C(=O)N[C@@H](C)C(=O)N[C@@H](CCC(N)=O)C(=O)N[C@@H](CCCCN)C(=O)N1CCC[C@H]1C(=O)N[C@@H](CO)C(=O)N[C@@H](CO)C(=O)NCC(=O)N[C@@H](C)C(=O)N1CCC[C@H]1C(=O)N1CCC[C@H]1C(=O)N1CCC[C@H]1C(=O)N[C@@H](CO)C(=O)O)C(C)C [AT760] (H-EGTFISDYSI[Aib]MDKIK(C16 diacid)QQDFVNWLLAQKPSSGAPPPS-OH; N-terminus assumed) | fnd (Fnd = fibrils not detected within experiment time (96 hours) with agitation.) | – | – | Clear | – | – | fnd (Fnd = fibrils not detected within experiment time (96 hours) with agitation.) | Clear | – | – | – | – |
| CC[C@H](C)[C@H](NC(=O)[C@H](CCCCN)NC(=O)[C@H](CC(=O)O)NC(=O)[C@H](CCSC)NC(=O)C(C)(C)NC(=O)[C@@H](NC(=O)[C@H](CO)NC(=O)[C@H](Cc1ccc(O)cc1)NC(=O)[C@H](CC(=O)O)NC(=O)[C@H](CO)NC(=O)[C@@H](NC(=O)[C@H](Cc1ccccc1)NC(=O)[C@@H](NC(=O)CNC(=O)CCCC(=O)O)[C@@H](C)O)[C@@H](C)CC)[C@@H](C)CC)C(=O)N[C@@H](CCCCNC(=O)CCCCCCCCCCCCCCC(=O)O)C(=O)N[C@@H](CCC(N)=O)C(=O)N[C@@H](CCC(N)=O)C(=O)N[C@@H](CC(=O)O)C(=O)N[C@@H](Cc1ccccc1)C(=O)N[C@H](C(=O)N[C@@H](CC(N)=O)C(=O)N[C@@H](Cc1c[nH]c2ccccc12)C(=O)N[C@@H](CC(C)C)C(=O)N[C@@H](CC(C)C)C(=O)N[C@@H](C)C(=O)N[C@@H](CCC(N)=O)C(=O)N[C@@H](CCCCN)C(=O)N1CCC[C@H]1C(=O)N[C@@H](CO)C(=O)N[C@@H](CO)C(=O)NCC(=O)N[C@@H](C)C(=O)N1CCC[C@H]1C(=O)N1CCC[C@H]1C(=O)N1CCC[C@H]1C(=O)N[C@@H](CO)C(=O)O)C(C)C [AT763] (Glutaryl-GTFISDYSI[Aib]MDKIK(C16 diacid)QQDFVNWLLAQKPSSGAPPPS-OH) | fnd (Fnd = fibrils not detected within experiment time (96 hours) with agitation.) | – | – | Clear | – | – | fnd (Fnd = fibrils not detected within experiment time (96 hours) with agitation.) | Clear | fnd (Fnd = fibrils not detected within experiment time (96 hours) with agitation.) | does not form fibrils | Clear | – |
| CC[C@H](C)[C@H](NC(=O)[C@H](C)NC(=O)[C@H](Cc1ccc(O)cc1)NC(=O)[C@H](CC(=O)O)NC(=O)[C@H](CO)NC(=O)[C@@H](NC(=O)[C@H](Cc1ccccc1)NC(=O)[C@@H](NC(=O)CNC(=O)[C@@H](N)CCC(=O)O)[C@@H](C)O)[C@@H](C)CC)C(=O)N[C@@H](C)C(=O)N[C@@H](CCSC)C(=O)N[C@@H](CC(=O)O)C(=O)N[C@@H](CCCCN)C(=O)N[C@H](C(=O)N[C@@H](CCCCNC(=O)CCCCCCCCCCCCCCC(=O)O)C(=O)N[C@@H](CCC(N)=O)C(=O)N[C@@H](CCC(N)=O)C(=O)N[C@@H](CC(=O)O)C(=O)N[C@@H](Cc1ccccc1)C(=O)N[C@H](C(=O)N[C@@H](CCC(=O)O)C(=O)N[C@@H](Cc1c[nH]c2ccccc12)C(=O)N[C@@H](CC(C)C)C(=O)N[C@@H](CC(C)C)C(=O)N[C@@H](C)C(=O)N[C@@H](CCC(N)=O)C(=O)N[C@@H](CCCCN)C(=O)N1CCC[C@H]1C(=O)N[C@@H](CO)C(=O)N[C@@H](CO)C(=O)NCC(=O)N[C@@H](C)C(=O)N1CCC[C@H]1C(=O)N1CCC[C@H]1C(=O)N1CCC[C@H]1C(=O)N[C@@H](CO)C(=O)O)C(C)C)[C@@H](C)CC [AT746] (H-EGTFISDYAIAMDKIK(C16 diacid)QQDFVEWLLAQKPSSGAPPPS-OH; N-terminus assumed) | fnd (Fnd = fibrils not detected within experiment time (96 hours) with agitation.) | – | – | Clear | – | – | – | – | – | – | – | – |
| CCCCCCCCCCCCCCCC(=O)NCCCC[C@H](NC(=O)[C@@H](NC(=O)[C@H](CCCCN)NC(=O)[C@H](CC(=O)O)NC(=O)[C@H](CCSC)NC(=O)[C@H](C)NC(=O)[C@@H](NC(=O)[C@H](CO)NC(=O)[C@H](Cc1ccc(O)cc1)NC(=O)[C@H](CC(=O)O)NC(=O)[C@H](CO)NC(=O)[C@@H](NC(=O)[C@H](Cc1ccccc1)NC(=O)[C@@H](NC(=O)CNC(=O)[C@@H](N)CCC(=O)O)[C@@H](C)O)[C@@H](C)CC)[C@@H](C)CC)[C@@H](C)CC)C(=O)N[C@@H](CCC(N)=O)C(=O)N[C@@H](CCC(N)=O)C(=O)N[C@@H](CC(=O)O)C(=O)N[C@@H](Cc1ccccc1)C(=O)N[C@H](C(=O)N[C@@H](CCC(=O)O)C(=O)N[C@@H](Cc1c[nH]c2ccccc12)C(=O)N[C@@H](CC(C)C)C(=O)N[C@@H](CC(C)C)C(=O)N[C@@H](C)C(=O)N[C@@H](CCC(N)=O)C(=O)N[C@@H](CCCCN)C(=O)N1CCC[C@H]1C(=O)N[C@@H](CO)C(=O)N[C@@H](CO)C(=O)NCC(=O)N[C@@H](C)C(=O)N1CCC[C@H]1C(=O)N1CCC[C@H]1C(=O)N1CCC[C@H]1C(=O)N[C@@H](CO)C(=O)O)C(C)C [AT751] (H-EGTFISDYSIAMDKIK(Palmitoyl)QQDFVEWLLAQKPSSGAPPPS-OH; N-terminus assumed) | – | – | – | Clear | – | – | – | – | – | – | – | <24 |
